Test results reported in US20090048229A1, “Methods for promoting wakefulness” (priority 2007, published 2009).

How the values were obtained:
[1] = system: rats trained to discriminate methamphetamine from saline; assay: Two-lever drug discrimination in methamphetamine trained rats; conditions: 0.32-10 mg/kg p.o.
[2] = system: total cholinesterase activity in the brain; assay: Total cholinesterase activity in brain homogenate after i.p. injection; format: in vivo, rat; conditions: brain 3 hours after injection; for Relative ChE Activity: relative to saline treated rats
Protocol: Animals were decapitated 3 hours after injection and the brains rapidly removed. The brain tissue was diced into small pieces, placed on ice and immediately homogenized with a Polytron PT1200 (Kinematic AG) in 10 ml ice cold Tris with 0.1% Triton-X and protease inhibitors. The protease inhibitors in the extraction buffer were Antipain (10 μM), Aprotinin (5 TIU/mg protein), Bestatin ([…]), Leupeptin (10 μM) and Pepstatin (1 μM). The final dilution of the homogenate in the final assay mixture was 120-fold.
Total cholinesterase activity was determined by a modification of the colorimetric method of Ellmann, et al. (Biochem. Pharmacol., 7:88-95 (1961)), as described above. Hydrolysis of acetylthiocholine was monitored indirectly by measurement of the formation of the conjugate between thiocholine and DTNB. Optical density at 405 nm was recorded during five (5) minutes employing a microplate spectrophotometer (Polarstar, BMG Labtech), and plotted against time. The initial rates were calculated from the slope of the linear portion of the graph.
Cholinesterase activity was normalized for protein content of the homogenate. Relative cholinesterase activity was calculated as the ratio of normalized cholinesterase activity in a rat treated with a control compound or a carbamoyl ester over normalized cholinesterase activity in saline treated rats.

[3] = system: male Wistar rats; assay: Wake promotion (EEG/EMG sleep-wake, locomotor activity, body temperature); format: in vivo, rat; conditions: for rebound hypersomnolence: FIG. 3; for effect on body temperature: FIG. 4; for locomotor hyperactivity / stimulant activity: FIG. 5; for duration of wakefulness: administered 5 hours after lights on (CT-5), FIG. 2
Protocol: Test compounds in various dose ranges or vehicle were administered to male Wistar rats 5 hours after lights on (CT-5). EEG, EMG, locomotor activity, drink- and food-related activity, and body temperature were concurrently monitored for 30 hr before and after treatment from rats living in separate isolated recording chambers. Sleep-wake discriminations were carried out using SCORE2004™, proprietary real-time hardware and software technology of Hypnion, Inc. (Lexington, Mass.). Comparisons were made between the reference compounds: d-amphetamine, rivastigmine, modafinil, and the following carbamoyl ester test compounds: […]

[4] = system: male CD IGS (Sprague Dawley derived) rats; assay: Induction of hypothermia after subcutaneous administration; format: in vivo, rat; conditions: for Induction of hypothermia MED (mg/kg s.c.): hypothermia = fall in temperature of >0.5° C.; for fall in body temperature: subcutaneous administration
Description: Cholinergic agonists cause hypothermia through a central mechanism of action (Freedman et al, 1989. Direct measurement of muscarinic agents in the central nervous system of mice using ex vivo binding. Eur. J. Pharmacol. 174:253-260). […] Since a premise of the present invention is that carbomyl esters would liberate the conjugated amine in the CNS only after inhibition of acetylcholinesterase, induction of hypothermia provides a useful correlation with the acetylcholinesterase inhibition detected in vitro and in vivo.
Hypothermia was defined as a fall in temperature of >0.5° C.
Hypothermia is a marker of CNS penetration for ACHE inhibitors.
If less soluble, the maximum injection volume was 5 mL/kg.
Baseline temperatures were taken just before injection.

[5] = biological target: butylryl cholinesterase (Homo sapiens, UniProt P06276); assay: Inhibition of butyrylcholinesterase; format: biochemical; conditions: read-out: Inhibition of BuChE (%) 10 μM
Sequence of butylryl cholinesterase (P06276 29-602): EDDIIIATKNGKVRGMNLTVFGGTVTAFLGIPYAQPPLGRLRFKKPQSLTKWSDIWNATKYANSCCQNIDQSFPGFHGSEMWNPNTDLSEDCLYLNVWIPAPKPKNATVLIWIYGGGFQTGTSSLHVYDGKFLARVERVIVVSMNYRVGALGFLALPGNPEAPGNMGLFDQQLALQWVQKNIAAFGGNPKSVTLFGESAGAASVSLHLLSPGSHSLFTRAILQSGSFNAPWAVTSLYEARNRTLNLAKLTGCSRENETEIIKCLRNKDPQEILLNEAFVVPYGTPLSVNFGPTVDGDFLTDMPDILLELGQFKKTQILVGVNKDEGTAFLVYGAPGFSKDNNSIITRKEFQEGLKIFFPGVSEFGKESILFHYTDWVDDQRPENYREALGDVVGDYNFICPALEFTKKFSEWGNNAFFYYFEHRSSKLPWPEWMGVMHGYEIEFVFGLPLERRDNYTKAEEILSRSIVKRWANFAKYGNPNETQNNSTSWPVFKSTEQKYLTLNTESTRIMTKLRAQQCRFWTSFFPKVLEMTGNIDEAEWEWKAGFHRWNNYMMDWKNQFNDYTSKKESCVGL
Protocol: The inhibition of butylryl cholinesterase was determined using methods known in the art e.g., Alcala Molel M. et al. (2003) Characterization of the anticholinesterase activity of two new tacrin-huperzine A hybrids. Neuropharmacology, 44 (6), 749-755.

[6] = biological target: T1, human recombinant acetylcholinesterase (Homo sapiens, UniProt P22303); assay: biochemical; conditions: for IC50: 30 min preincubation, 25° C., read-out: Inhibition of AChE IC50; for inhibition at 10 µM: read-out: Inhibition of AChE (%) 10 μM
T1 construct: purchased Sigma Chemical Co (St. Louis, Mo.) C1682
T1 sequence (P22303 32-614): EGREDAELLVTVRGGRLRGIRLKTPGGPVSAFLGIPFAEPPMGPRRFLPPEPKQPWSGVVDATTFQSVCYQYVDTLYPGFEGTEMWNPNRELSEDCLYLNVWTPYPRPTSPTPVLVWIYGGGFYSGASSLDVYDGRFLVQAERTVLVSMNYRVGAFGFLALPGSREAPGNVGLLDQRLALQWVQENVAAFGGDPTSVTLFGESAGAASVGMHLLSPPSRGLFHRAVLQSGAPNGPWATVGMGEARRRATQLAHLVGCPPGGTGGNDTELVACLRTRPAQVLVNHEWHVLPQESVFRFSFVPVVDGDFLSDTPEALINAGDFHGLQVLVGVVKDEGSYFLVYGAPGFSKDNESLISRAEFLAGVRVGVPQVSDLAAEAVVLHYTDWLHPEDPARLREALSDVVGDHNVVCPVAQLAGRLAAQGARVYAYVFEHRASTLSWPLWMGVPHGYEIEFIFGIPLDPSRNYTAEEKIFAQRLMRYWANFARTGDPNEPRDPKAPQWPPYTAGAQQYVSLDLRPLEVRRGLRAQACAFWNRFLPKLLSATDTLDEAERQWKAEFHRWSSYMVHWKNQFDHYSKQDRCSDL
Protocol: All reagents employed in this experiment were of analytical grade. Acetylthiocholine iodide and 5,5′-dithiobis-(2-nitro)benzoic acid (DTNB) and human recombinant acetylcholinesterase (C1682) were purchased from Sigma Chemical Co (St. Louis, Mo.).
The enzyme, compound or stigmine and buffer were preincubated for 30 minutes. At the end of the preincubation period, the substrate acetylthiocholine was added. The final assay mixture contained 10 mM Tris-buffer (pH 8), 0.3 mM Acetylthiocholine and 0.33 mM DTNB and 0.08 U/ml enzyme. At least five (5) different concentrations of the compound or stigmine were assayed per IC50 experiment.
Hydrolysis of acetylthiocholine was monitored indirectly by measurement of the formation of the conjugate between thiocholine and DTNB.

[7] = biological target: AChE (Homo sapiens, UniProt P22303); format: biochemical
Sequence of AChE (P22303 32-614): as above

[8] = biological target: BuChE (Homo sapiens, UniProt P06276); assay: In vitro screening assay, BuChE inhibition; format: biochemical
Sequence of BuChE (P06276 29-602): as the sequence (P06276 29-602) above
Description: An in vitro screening assay with various conjugates was completed according to the methods described in Ellman G L et al., Biochem Pharmacol., 7:88-95 (1961) and in Nadarajah B, J. Anal. Toxicol., 16:192-193 (1992), both of which are herein incorporated by reference in their entireties. The assay method was completed according to the following: […]

| SMILES | Induction of hypothermia MED (mg/kg s.c.) [4] | fall in body temperature [4] | inhibition at 10 µM [5] [%] | IC50 [6] [µM] | inhibition at 10 µM [6] [%] | AChEI (%) 1 μM [7] [%] | AChEI (%) 10 μM [7] [%] | BuChEI (%) 10 μM [8] [%] | also measured |
| --- | --- | --- | --- | --- | --- | --- | --- | --- | --- |
| C[C@H](Cc1ccccc1)N(C)C(=O)Oc1cccc([C@H](C)N(C)C)c1 [Compound 7, S-riva-l-methamphetamine] | ≦1 mg/kg s.c. | dose-related-related fall in body temperature | 17 | 3.2 | 79 | 32 | 79 | 17 | stimulus generalization (selection of methamphetamine lever) [1]: did not select the methamphetamine lever; ChE inhibition ([2]; 2 mg/kg i.p.): 38%; Relative ChE Activity ([2]; 2 mg/kg i.p.): 62%; rebound hypersomnolence ([3]; listed as Compound B): rebound hypersomnolence was not observed; rebound hypersomnolence ([3]; listed as compound B): lack of hypersomnolence; effect on body temperature ([3]; listed as Compound B): did not cause an increase in body temperature (hyperthermia), but rather caused an opposite reduction in body temperature; effect on body temperature ([3]; listed as compound B): absence of hypothermia; locomotor hyperactivity / stimulant activity ([3]; listed as Compound B): did not cause locomotor hyperactivity; locomotor hyperactivity / stimulant activity ([3]; listed as compound B): lack of locomotor stimulant activity; duration of wakefulness ([3]; listed as B): dose-related increase in wakefulness; duration of wakefulness ([3]; listed as Compound B): unexpectedly long increase in wakefulness that surpassed that seen with the reference compounds tested |
| C[C@H](Cc1ccccc1)NC(=O)Oc1cccc([C@H](C)N(C)C)c1 [Compound 9, S-riva-l-amphetamine] | 10 mg/kg s.c. | dose-related-related fall in body temperature | 90 | 3.1 | 79 | 35 | 79 | 90 | ChE inhibition ([2]; 8 mg/kg i.p.): 41%; Relative ChE Activity ([2]; 8 mg/kg i.p.): 59%; duration of wakefulness [3]: dose-related increase in wakefulness; BuChEI (%) 1 μM ([8]; 1 μM): 27% |
